Data published in US20040038369A1, “Airway-specific trypsin-like enzymes and method of using the same” (priority 2000, published 2004).

Assays:
[1] = test system: NCI-H292 cells; test: AB-PAS staining of mucus glycoprotein in NCI-H292 cells; format: cell-based, human; conditions: FIG. 1 and 2
Description: (§1) NCI-H292 cells (human pulmonary mucoepidermoid tumor cell strain, purchased from ATCC) were suspended in 10% FCS (Fetal Calf Serum)-containing RPMI-1640 (produced by Gibco Corp.), sowed on a Lab-Tek 8 well chamber slide (produced by Nunc Corp.) in a density of 6.0×10^4 cells/cm^2, cultured for 72 hours, subjected to the replacement of the culture solution by RPMI-1640 containing 0.1% of BSA, and further cultured for 24 hours.
On the day of the treatment, the culture solution of each well was replaced by RPMI-1640 (containing 0.1% BSA) containing EGF (5 ng/mL, produced by Becton Dickinson Corp.), HB-EGF (5 ng/mL, produced by R & D Corp.), TGF-α (5 ng/mL, produced by Peprotech Corp.), or PBS to start the treatment. Then, the cells were incubated at 37° C. for 24 hours.
After the prescribed 24 hours treatment, the culture supernatant was removed. The residue was once washed with PBS, mixed with 4% paraformaldehyde/PBS, and then allowed to stand at room temperature for one hour to immobilize the cells. The immobilized cells were twice washed with Milli Q water and then stained with AB-PAS. The staining was carried out according to a book (“All of new dyeing methods” p136-150 (Iyaku Shuppansha)). After staining, the cells were sequentially immersed in 70, 80, and 100% ethanol for five minutes, respectively, to remove water, sealed in an Aquatex (produced by Merck Corp.), and then subjected to the observation of the staining image with an optical microscope. From the results, it was clarified that all of HAST, TGF-α, EGF, and HB-EGF promoted the production of the mucus glycoprotein.
as §1, with “(purchased” for “(human pulmonary mucoepidermoid tumor cell strain, purchased”, “FCS-containing” for “FCS (Fetal Calf Serum)-containing”, “hours. […]” for “hours.”

[2] = test system: BEAS-2B; test: Calcium influx in airway epithelial cell strain BEAS-2B; format: cell-based; conditions: AST 2 units/mL; trypsin 10 to 100 units/mL; SFLLRNamide 100 μM
Description: The Ca^2+ influx due to the AST was examined with respect to an airway epithelial cell strain BEAS-2B. The confluent cells adhered to six 10 cm dishes were used. The cells were peeled with a 10 mM EDTA/HEPES-Tyrode buffer solution for 10 minutes, recovered by a centrifugal treatment at 1,500 rpm at room temperature for 5 minutes, and then resuspended in 10 mL of HEPES-Tyrode buffer solution-Ca^2+ (−) pH 7.4. The recovered cells (about 1.1×10^7 cells) were suspended in 11 mL of HEPES-Tyrode buffer solution (1 μg/mL, containing Fura2-AM) to load the Fura2-AM at 37° C. for 30 minutes. The cells were recovered by a centrifugal treatment at 1,500 rpm at room temperature for 5 minutes, twice washed with HEPES-Tyrode buffer solution-Ca^2+ (−) pH 7.4, and then resuspended in 11 mL of HEPES-Tyrode buffer solution-Ca^2+ (−) pH 7.4. The cell suspension was mixed with […] of 1M CaCl2 to give a final concentration of 1 mM CaCl2, and then incubated in a shaded state at room temperature for 5 minutes. The prepared Fura2-AM-loaded infected cells were dispensed into a 96 well plate in a volume of 100 μL/well, further subjected to the dispensation of HEPES-Tyrode buffer solution-Ca^2+ (+) pH 7.4 in a volume of 80 μL/well, and then assayed with Fluorescence Drug Screening System (Hamamatsu Photonics Co.). […]

Substance: HAST: human airway-specific trypsin-like enzyme; propeptide moiety bound to trypsin-like protein moiety via a disulfide bond
- production of the mucus glycoprotein [1]: promoted
- Ca2+ influx [2]: observed
